Series [1] relates to P‐gp. In words: IVIVE of intrinsic CL and Kp,uu,brain using REF and BMEC protein content. Details: species or system human. As to conditions: for Kp,uu,brain,pred(method 2): 5C model.
Series [2] has as its system P‐gp. The conditions noted are these: humans, cyclosporine as inhibitor; cited from earlier work.
The next series concerns P-gp. In words: IVIVE of Kp,uu,brain from in vitro ER using REF. Details: species or system human. As to conditions: human, brain (unbound, Kp,uu).
Series [3] deals with P‐gp. In words: IVIVE of Kp,uu,brain from in vitro ER using REF. Details: species or system human. The conditions noted are these: for Kp,uu,brain,pred(method 1) Mean ± SD / Kp,uu,brain,pred(method 1) Individual: predicted from in vitro ER and REF; for Kp,uu,brain,pred(method 1) Mean ± SD: four experiments; for Kp,uu,brain,pred(method 1) Individual: individual experiments 1-4.

“And” between values parts separate entries of the source, which are not always exact repeats. Equal entries are not always repeated.

In the case of `CCN(CC)CCNC(=O)c1cc(Cl)c(N)cc1OC` [Metoclopramide, metoclopramide], in the series on P‐gp [1] (mean ± standard deviation), the “Kp,uu,brain,pred(method 2)” value was 0.61 ± 0.10. Also, the “K1 (cerebral uptake CL), impact of P‐gp inhibition” value with P‐gp [2] is reported as “not impacted”. In the series with P-gp, this molecule gave a Kp uu of 1.3. Further, in the series with P‐gp [3], the “Kp,uu,brain,pred(method 1) Mean ± SD” value was 0.74 ± 0.08; the “Kp,uu,brain,pred(method 1) Individual” value was 0.74 and 0.76 and 0.63 and 0.81.

In the case of `CNC(=O)C(CCN1CCC(O)(c2ccc(Cl)cc2)CC1)(c1ccccc1)c1ccccc1` [N‐desmethyl loperamide], the “Kp,uu,brain,pred(method 2)” value with P‐gp [1] (mean ± standard deviation) was found to be 0.020 ± 0.014. In addition, the “IVIV Extrapolated CLi” value with P‐gp [1] (mean ± standard deviation, scaled with BMEC protein content) is 287 ± 88 mL/min. Further, in the series on P‐gp [1] (method 2), the “P/O (predicted/observed value)” value was 0.44. Besides, the “P/O (predicted/observed Kp,uu,brain ratio)” value in the series with P‐gp [3] (method 1) is listed as 0.92. In the series on P‐gp [3], the “Kp,uu,brain,pred(method 1) Mean ± SD” value was 0.043 ± 0.018; the “Kp,uu,brain,pred(method 1) Individual” value was 0.058 and 0.035 and 0.056 and 0.021.
